Results published in patent publication US20210227814A1, “A TRANSGENIC INVERTEBRATE MODEL FOR ALZHEIMER'S DISEASE AND USE THEREOF” (National Center for Geriatrics and Gerontology, priority 2017, published 2021).

Experiments:
Type in all cases: in vivo
[1] = test system: transgenic Drosophila strains expressing Dut40; test: Western blotting of aggregated Aβ in Drosophila expressing only Dut40; conditions: Neu5Ac feeding (−) or (+); flies expressing Dut40 only
[2] = test system: transgenic Drosophila expressing GALT6 and SAT1; test: LC-MS of GM3 ganglioside production in transgenic Drosophila; conditions: Neu5Ac feeding (+) vs (−), 10 mM Neu5Ac/150 mM sucrose solution, heads of adults
Protocol: The obtained Drosophila strains were grown on Ebios Cornmeal Sucrose Agar medium at a temperature of 25° C., and in a light-dark cycle of 12 hours. In order to provide a sialic acid donor substrate Neu5Ac, Drosophila was allowed to freely lick filter paper soaked with a 10 mM Neu5Ac/150 mM sucrose solution for 24 hours every other day for 1 to 2 weeks. In order to check whether GM3 ganglioside is produced in the transgenic Drosophila strains prepared, liquid chromatography mass spectrometry (LC-MS) was carried out. The spectrometry was carried out with respect to the following Drosophila strains: (1) wild type (Neu5Ac feeding (−)) (negative control) (2) transgenic Drosophila expressing GALT6 alone (Neu5Ac feeding (−)), (3) transgenic Drosophila expressing GALT6 and SAT1 (Neu5Ac feeding (−)), (4) transgenic Drosophila expressing GALT6 and SAT1 (Neu5Ac feeding (+)), (5) transgenic Drosophila expressing SAT1 alone (Neu5Ac feeding (+)), and (6) transgenic Drosophila expressing GALT6, SAT1 and GNE (Neu5Ac feeding (−)). For each of the transgenic Drosophila strains, 200 to 1000 heads of adults were collected. To the heads, TBS buffer (50 mM Tris-HCl (pH7.6), 150 mM NaCl) was added, and the mixture was homogenized, and then dried. The obtained pellet was suspended in a solution mixture of chloroform: methanol (v/v=2:1) and a lipid extraction liquid was collected. […]

[3] = test system: transgenic Drosophila strain expressing GALT6, SAT1 and Dut40; test: Western blotting of aggregated Aβ (TBS insoluble fraction) in brain tissue; conditions: Neu5Ac feeding (+) compared to (−), GALT6, SAT1 and Dut40 flies
Protocol: The obtained Drosophila strains were grown on Ebios Cornmeal Sucrose Agar medium at a temperature of 25° C., and in a light-dark cycle of 12 hours. In order to provide a sialic acid donor substrate Neu5Ac, Drosophila was allowed to freely lick filter paper soaked with a 10 mM Neu5Ac/150 mM sucrose solution for 24 hours every other day for 1 to 2 weeks. To confirm whether of GM3 ganglioside-dependent aggregated Aβ is accumulated in the transgenic Drosophila co-expressing GM3 ganglioside and Dut40, a sample prepared from the brain tissue of a transgenic Drosophila strain expressing GALT6, SAT1 and Dut40, was subjected to western blotting. From 100 heads of adults of each of the transgenic Drosophila strain expressing GALT6, SAT1 and Dut40 (Neu5Ac feeding (−)) and the transgenic Drosophila expressing GALT6, SAT1 and Dut40 (Neu5Ac feeding (+)), were collected, homogenized in TBS buffer and subjected to ultracentrifugation (100,000 g, one hour, 4° C.). The supernatant was collected (TBS soluble fraction). The remaining sediment was again homogenized in 100% formic acid and centrifuged (14,000 rpm, 20 minutes, 25° C.) to remove unnecessary components. […] Bands were detected by ECL western blotting detection system (GE Healthcare Life Sciences). The bands detected were analyzed by Image Analysis Software (ImageJ, made by the National Institutes of Health) to convert into numerical values. […]

CC(=O)N[C@H]1[C@H]([C@@H](O)[C@@H](O)CO)O[C@@](O)(C(=O)O)C[C@@H]1O [Neu5Ac]
effect on the aggregation of Dut40 [1]: does not have an effect
production of GM3 ganglioside [2]: confirmed
amount of aggregated Dut40 [3]: increased
